This is an account of results in ChEMBL document CHEMBL4627294, “Synthesis and efficacy of pyrvinium-inspired analogs against tuberculosis and malaria pathogens” (Bioorg Med Chem Lett, 2020).

Values after ≈ are worked out from the molar mass of the structure shown. Active and inactive are the calls of the source. The rule behind the calls is not given here. Bounds are passed on as bounds.

The subject of data set [1] is Plasmodium falciparum. As to the kind of experiment: Antimalarial activity against erythrocytic stage of Plasmodium falciparum 3D7 incubated for 50 hrs. The format is functional, organism-based. The note with it: 3D7, 50 h.
In another data set the test system is CHO-K1. As to the kind of experiment: Cytotoxicity against CHOK1 cells. The format is cell-based. As to conditions: Cricetulus griseus.
Data set [2] is described as follows: Cytotoxicity against human HEK cells. The note with it: HEK293. The format is cell-based.
In a further data set the test system is NRK-49F. As to the kind of experiment: Cytotoxicity against rat NRK-49F cells. It is filed as cell-based.
A short description of data set [3]: Selectivity index, ratio of IC50 for CHOK1 cells to IC50 for Plasmodium falciparum 3D7. It is filed as toxicity. As to conditions: hamster, CHO-K1 cells; read-out: Ratio IC50.
For data set [4], the system named is Mycobacterium tuberculosis. As to the kind of experiment: Antimycobacterial activity against Mycobacterium tuberculosis H37Rv assessed as inhibition of bacterial growth by MABA assay. The format is functional.
A short description of data set [5]: Selectivity index, ratio of IC50 for CHOK1 cells to MIC for Mycobacterium tuberculosis H37Rv. The format is toxicity. As to conditions: hamster, CHO-K1 cells.
Data set [6] deals with Plasmodium falciparum. The data set is described as follows: Antimalarial activity against drug-resistant Plasmodium falciparum Dd2. It is filed as functional, organism-based.
The test system of data set [7] is Plasmodium falciparum. The data set is described as follows: Antimalarial activity against early ring stage of Plasmodium falciparum 3D7 assessed as parasite growth arrest at early trophozite stage at 3 times of IC50 incubated for 48 hrs by giemsa staining based light microscopy. The format is functional, organism-based.
For data set [8], the system named is Plasmodium falciparum. As to the kind of experiment: Parasiticidal activity against early ring stage of Plasmodium falciparum 3D7 assessed as reduction in parasite growth incubated for 48 hrs followed by compound washed off and measured after 48 hrs incubation in normal medium. It is filed as functional, organism-based.
Data set [9] relates to Plasmodium falciparum. The data set is described as follows: Antimalarial activity against Plasmodium falciparum 3D7 assessed as inhibition of parasite growth incubated for 96 hrs. The format is functional, organism-based. As to conditions: 3D7, 96 h.

On to `CN(C)c1ccc2c(ccc(/C=C/c3cccc(C#N)c3)[n+]2C)c1`, for which the IC50 in the data set with Plasmodium falciparum [1] is 0.217 µM; with CHO-K1 it was 87.6 µM; in [2], 56 µM; in the data set with NRK-49F it was 59.5 µM. Further, the selectivity ratio worked out at 404 in data set [3] and 3.5 in data set [5]. The MIC in data set [4] worked out at 25 µM.

As for `CN(C)c1ccc2c(ccc(/C=C/c3c[nH]c4ccccc34)[n+]2C)c1`, the 50% inhibitory concentration (IC50) in the data set with Plasmodium falciparum [1] was 0.06 µM; in the data set with CHO-K1 it was 11.4 µM; in data set [2], 10.6 µM; in the data set on NRK-49F, 11.3 µM; in the data set on Plasmodium falciparum [6], 0.097 µM. In addition, the selectivity ratio in [3] stood at 188; in [5] it was 3.64. Further, the minimal inhibitory concentration (MIC) in data set [4] amounted to 3.12 µM.

On to `CN(C)c1ccc2c(ccc(/C=C/c3ccc[nH]3)[n+]2C)c1`, for which the IC50 turned out to be 1.54 µM in the data set with Plasmodium falciparum [1], 77.8 µM in the data set with CHO-K1, 66.9 µM in data set [2] and 76 µM in the data set with NRK-49F. Besides, the selectivity ratio came to 50.5 in data set [3] and 3.11 in [5]. The MIC in [4] came out at 25 µM.

As to `CN(C)c1ccc2c(ccc(/C=C/c3c(Cl)cccc3Cl)[n+]2C)c1`, the half-inhibitory concentration (IC50) stood at 0.023 µM in the data set on Plasmodium falciparum [1]; 7.92 µM in the data set with CHO-K1; 5.62 µM in data set [2]; 5.23 µM with NRK-49F; 0.053 µM with Plasmodium falciparum [6]; 0.00237 µM in the data set with Plasmodium falciparum [9]. Moreover, the figures for the selectivity ratio in data set [3] and in [5] were 344 and 2.53, respectively. For the same compound, the outcome in the data set on Plasmodium falciparum [7] and in the data set on Plasmodium falciparum [8] was Active. In addition, the MIC in [4] was determined as 3.12 µM.

Consider `CN(C)c1ccc2c(ccc(/C=C/c3ccccc3)[n+]2C)c1`, for which the IC50 turned out to be 0.089 µM in the data set on Plasmodium falciparum [1], 41.6 µM with CHO-K1, 39.8 µM in [2] and 42.1 µM in the data set on NRK-49F. The selectivity ratio in data set [3] is 467; in [5], less than 0.41. In addition, the MIC in data set [4] is more than 100 µM.

`C[C@@H]1CC[C@H]2[C@@H](C)C(=O)O[C@@H]3O[C@@]4(C)CC[C@@H]1[C@]32OO4` [ARTEMISININ]: the IC50 with Plasmodium falciparum [1] came out at 0.025 µM; with Plasmodium falciparum [6], 0.021 µM.

Regarding `CCc1nc(N)nc(N)c1-c1ccc(Cl)cc1` [PYRIMETHAMINE], the concentration for half-maximal inhibition (IC50) with Plasmodium falciparum [1] is 0.011 µM.

In the case of `Cc1cc(/C=C/c2ccc3cc(N(C)C)ccc3[n+]2C)c(C)n1-c1ccccc1`, the IC50 in the data set with Plasmodium falciparum [1] was 0.774 µM; in the data set on CHO-K1, 10.9 µM; in data set [2], 16 µM; in the data set with NRK-49F, 20.2 µM. Moreover, the results for the selectivity ratio in [3] and in data set [5] were 14 and 1.73, respectively. The MIC in data set [4] is 6.25 µM.

As for `Cc1cc(/C=C/c2ccc3cc(N(C)C)ccc3[n+]2C)c(C)n1-c1ccccn1`, the IC50 amounted to 0.228 µM in the data set with Plasmodium falciparum [1], 15.2 µM with CHO-K1, 14.6 µM in data set [2] and 12.7 µM in the data set with NRK-49F. Further, the selectivity ratio was determined as 66.2 in [3] and 2.42 in data set [5]. In addition, in [4], the MIC came out at 6.25 µM.

Regarding `CN(C)c1ccc2c(ccc(/C=C/c3ccc(Cl)c(Cl)c3)[n+]2C)c1`, the IC50 in the data set with Plasmodium falciparum [1] worked out at 0.087 µM; in the data set with CHO-K1, 12.4 µM; in data set [2], 8.56 µM; in the data set on NRK-49F it was 11.3 µM. Moreover, the values for the selectivity ratio in data set [3] and in data set [5] were 142 and 3.98, respectively. In addition, the MIC in [4] came to 3.12 µM.

On to `CO[C@H]1/C=C/O[C@@]2(C)Oc3c(C)c(O)c4c(O)c(c(/C=N/N5CCN(C)CC5)c(O)c4c3C2=O)NC(=O)/C(C)=C\C=C\[C@H](C)[C@H](O)[C@@H](C)[C@@H](O)[C@@H](C)[C@H](OC(C)=O)[C@@H]1C` [RIFAMPIN], for which the MIC in data set [4] is 0.24 µM (≈ 0.198 µg/mL).

As for `CN(C)c1ccc2c(ccc(/C=C/c3cc(Cl)ccc3O)[n+]2C)c1`, the IC50 in the data set with Plasmodium falciparum [1] stood at 0.441 µM; in the data set on CHO-K1, 30.3 µM; in data set [2], 15.3 µM; with NRK-49F it was 12 µM. Moreover, the selectivity ratio came out at 68.7 in data set [3] and 9.72 in data set [5]. The MIC in data set [4] stood at 3.12 µM.

Turning to `CN(C)c1ccc2c(ccc(/C=C/c3ccc(C#N)cc3)[n+]2C)c1`, the IC50 with Plasmodium falciparum [1] was determined as 0.094 µM; in the data set with CHO-K1, 52.6 µM; in [2], 62.1 µM; in the data set with NRK-49F, 50.2 µM. Moreover, the figures for the selectivity ratio in data set [3] and in data set [5] were 553 and 1.05, respectively. Moreover, in data set [4], the MIC is 50 µM.

`CN(C)c1ccc2c(ccc(/C=C/c3ccccc3[N+](=O)[O-])[n+]2C)c1`: the IC50 in the data set with Plasmodium falciparum [1] was 3.6 µM; in the data set on CHO-K1 it was 73.9 µM; in [2], 66.7 µM; with NRK-49F it was 69.5 µM. In addition, the selectivity ratio came out at 20.5 in data set [3] and 1.47 in [5]. The MIC in [4] was found to be 50 µM.

In the case of `CN(C)c1ccc2c(ccc(/C=C/c3cc(Cl)cc(Cl)c3O)[n+]2C)c1`, the IC50 in the data set with Plasmodium falciparum [1] worked out at 2.47 µM; with CHO-K1, 54.7 µM; in [2], 50.1 µM; in the data set on NRK-49F, 49.1 µM. In addition, the selectivity ratio in data set [3] is 22.1; in data set [5] it was 2.18. In addition, the MIC in [4] turned out to be 25 µM.
